Data as given in patent US9663460B2, “Sulfur derivatives as chemokine receptor modulators” (ALLERGAN, INC., priority 2010, dated 2017).
pIC50: −log10 of the molar value.

Biological target: CCR2 (Homo sapiens (Human), UniProt P41597)
Test: Calcium activity assayed on the FLIPR Tetra in HEK-Gqi5 cells stably expressing CCR2
Assay type: cell-based
Settings: FLIPR Tetra calcium assay

Sequence of CCR2 (P41597 whole entry, species assumed): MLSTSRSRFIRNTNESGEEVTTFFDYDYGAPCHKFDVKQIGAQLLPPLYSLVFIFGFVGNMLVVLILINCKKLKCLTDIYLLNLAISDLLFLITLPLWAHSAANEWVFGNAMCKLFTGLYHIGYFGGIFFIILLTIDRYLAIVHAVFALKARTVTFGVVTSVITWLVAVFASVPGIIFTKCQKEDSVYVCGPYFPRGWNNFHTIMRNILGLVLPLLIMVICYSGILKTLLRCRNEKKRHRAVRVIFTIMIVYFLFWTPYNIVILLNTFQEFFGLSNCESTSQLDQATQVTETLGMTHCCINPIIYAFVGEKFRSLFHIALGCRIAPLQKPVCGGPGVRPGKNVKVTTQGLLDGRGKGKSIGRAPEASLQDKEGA

SMILES	CCR2 % ANTAGONISM [%]	pIC50
CSc1ccc(Cl)cc1NS(=O)(=O)c1ccc(F)cc1F [N-[5-chloro-2-(methylthio)phenyl]-2,4-difluorobenzenesulfonamide]	87	
C[N+](C)([O-])CCCS(=O)(=O)c1ccc(Cl)cc1NS(=O)(=O)c1cc2ccccc2o1 [N-(5-chloro-2-{[3-(dimethylnitroryl)propyl]sulfonyl}phenyl)-1-benzofuran-2-sulfonamide]	83	
NC(=O)NCC[S+]([O-])c1ccc(Cl)cc1NS(=O)(=O)c1cc2ccccc2o1 (stereo not drawn) [N-[2-({2-[(aminocarbonyl)amino]ethyl}sulfinyl)-5-chlorophenyl]-1-benzofuran-2-sulfonamide]	64	5.72
CS(=O)(=O)c1ccc(Cl)cc1NS(=O)(=O)c1ccc(Cl)cc1 [4-chloro-N-[5-chloro-2-(methylsulfonyl)phenyl]benzenesulfonamide]	98	6.81
O=S(=O)(Cc1ncc[nH]1)c1ccc(Cl)cc1NS(=O)(=O)c1ccc(Cl)c(C(F)(F)F)c1 [4-chloro-N-{5-chloro-2-[(1H-imidazol-2-ylmethyl)sulfonyl]phenyl}-3-(trifluoromethyl)benzenesulfonamide]	113	6.60
CC(=O)NCCS(=O)(=O)c1ccc(Cl)cc1NS(=O)(=O)c1ccc(Cl)c(C(F)(F)F)c1 [N-(2-{[4-chloro-2-({[4-chloro-3-(trifluoromethyl)phenyl]sulfonyl}amino)phenyl]sulfonyl}ethyl)acetamide]	98	5.28
Nc1cccc(C[S+]([O-])c2ccc(Cl)cc2NS(=O)(=O)c2ccc(Cl)cc2)c1 (stereo not drawn) [N-{2-[(3-aminobenzyl)sulfinyl]-5-chlorophenyl}-4-chlorobenzenesulfonamide]	99	6.80
O=S(=O)(Nc1cc(Cl)ccc1SCc1cccc(O)c1)c1cc2ccccc2o1 [N-{5-chloro-2-[(3-hydroxybenzyl)thio]phenyl}-1-benzofuran-2-sulfonamide]	98	7.11
O=C1NCC(C[S+]([O-])c2ccc(Cl)cc2NS(=O)(=O)c2cc3ccccc3o2)O1 (stereo not drawn) [N-(5-chloro-2-{[(2-oxo-1,3-oxazolidin-5-yl)methyl]sulfinyl}phenyl)-1-benzofuran-2-sulfonamide]	79	5.67
CC(C)(C)OC(=O)Nc1nc(CSc2ccc(Cl)cc2NS(=O)(=O)c2cc3ccccc3o2)cs1 [tert-butyl {4-[({2-[(1-benzofuran-2-ylsulfonyl)amino]-4-chlorophenyl}thio)methyl]-1,3-thiazol-2-yl}carbamate]	28	5.62
NCC[S+]([O-])c1ccc(Cl)cc1NS(=O)(=O)c1ccc(Cl)c(C(F)(F)F)c1 (stereo not drawn) [N-{2-[(2-aminoethyl)sulfinyl]-5-chlorophenyl}-4-chloro-3-(trifluoromethyl)benzenesulfonamide]	84	5.45
CS(=O)(=O)c1ccc(Cl)cc1NS(=O)(=O)c1ccc(Cl)cc1F [4-chloro-N-[5-chloro-2-(methylsulfonyl)phenyl]-2-fluorobenzenesulfonamide]	98	6.77
COC(=O)CC[S+]([O-])c1ccc(Cl)cc1NS(=O)(=O)c1ccc(Cl)c(C(F)(F)F)c1 (stereo not drawn) [methyl 3-{[4-chloro-2-({[4-chloro-3-(trifluoromethyl)phenyl]sulfonyl}amino)phenyl]sulfinyl}propanoate]	82	6.97
NC(=O)NCCS(=O)(=O)c1ccc(Cl)cc1NS(=O)(=O)c1cc2ccccc2o1 [N-[2-({2-[(aminocarbonyl)amino]ethyl}sulfonyl)-5-chlorophenyl]-1-benzofuran-2-sulfonamide]	68	5.70
NCCCSc1ccc(Cl)cc1NS(=O)(=O)c1cc2ccccc2o1 [N-{2-[(3-aminopropyl)thio]-5-chlorophenyl}-1-benzofuran-2-sulfonamide]	102	
CC(=O)Nc1nc(CSc2ccc(Cl)cc2NS(=O)(=O)c2cc3ccccc3o2)cs1 [N-{4-[({2-[(1-benzofuran-2-ylsulfonyl)amino]-4-chlorophenyl}thio)methyl]-1,3-thiazol-2-yl}acetamide]	102	6.07
COc1cccc(CSc2ccc(Cl)cc2NS(=O)(=O)c2cc3ccccc3o2)c1 [N-{5-chloro-2-[(3-methoxybenzyl)thio]phenyl}-1-benzofuran-2-sulfonamide]	85	6.19
CS(=O)(=O)c1ccc(Cl)cc1NS(=O)(=O)c1ccc(F)cc1F [N-[5-chloro-2-(methylsulfonyl)phenyl]-2,4-difluorobenzenesulfonamide]	91	6.45

SMILES	CCR2 % ANTAGONISM [%]	pIC50
Nc1cccc(CSc2ccccc2NS(=O)(=O)c2cc3ccccc3o2)c1 [N-{2-[(3-aminobenzyl)thio]phenyl}-1-benzofuran-2-sulfonamide]	105	6.17
CC(C)c1ccc(S(=O)(=O)Nc2cc(Cl)ccc2[S+](C)[O-])cc1 (stereo not drawn) [N-[5-chloro-2-(methylsulfinyl)phenyl]-4-isopropylbenzenesulfonamide]	68	6.03
O=S(=O)(Nc1cc(Cl)ccc1SCc1ncccn1)c1cc2ccccc2o1 [N-{5-chloro-2-[(pyrimidin-2-ylmethyl)thio]phenyl}-1-benzofuran-2-sulfonamide]	100	6.26
O=S(=O)(Nc1cc(Cl)ccc1SCc1ccccn1)c1cc2ccccc2o1 [N-{5-chloro-2-[(pyridin-2-ylmethyl)thio]phenyl}-1-benzofuran-2-sulfonamide]	91	7.46
O=S(=O)(Nc1cc(Cl)ccc1SCc1cccnc1F)c1cc2ccccc2o1 [N-(5-chloro-2-{[(2-fluoropyridin-3-yl)methyl]thio}phenyl)-1-benzofuran-2-sulfonamide]	76	7.03
CN(C)C(=O)CCS(=O)(=O)c1ccc(Cl)cc1NS(=O)(=O)c1cc2ccccc2o1 [3-({2-[(1-benzofuran-2-ylsulfonyl)amino]-4-chlorophenyl}sulfonyl)-N,N-dimethylpropanamide]	99	7.12
O=S(=O)(Nc1cc(Cl)ccc1[S+]([O-])CCO)c1ccc(Cl)c(C(F)(F)F)c1 (stereo not drawn) [4-chloro-N-{5-chloro-2-[(2-hydroxyethyl)sulfinyl]phenyl}-3-(trifluoromethyl)benzenesulfonamide]	101	6.84
CS(=O)(=O)c1ccc(Cl)cc1NS(=O)(=O)c1ccc(Cl)c(C(F)(F)F)c1 [4-chloro-N-[5-chloro-2-(methylsulfonyl)phenyl]-3-(trifluoromethyl)benzenesulfonamide]	90	7.19
O=S(=O)(Nc1cc(Cl)ccc1SCCc1ccccn1)c1cc2ccccc2o1 [N-{5-chloro-2-[(2-pyridin-2-ylethyl)thio]phenyl}-1-benzofuran-2-sulfonamide]	84	6.15
Cc1ccc(S(=O)(=O)Nc2cc(Cl)ccc2[S+](C)[O-])o1 (stereo not drawn) [N-[5-chloro-2-(methylsulfinyl)phenyl]-5-methylfuran-2-sulfonamide]	76	6.71
O=S(=O)(Cc1cccc[n+]1[O-])c1ccc(Cl)cc1NS(=O)(=O)c1cc2ccccc2o1 [N-(5-chloro-2-{[(1-oxidopyridin-2-yl)methyl]sulfonyl}phenyl)-1-benzofuran-2-sulfonamide]	102	6.18
Cc1n[nH]c(C)c1CC[S+]([O-])c1ccc(Cl)cc1NS(=O)(=O)c1cc2ccccc2o1 (stereo not drawn) [N-(5-chloro-2-{[2-(3,5-dimethyl-1H-pyrazol-4-yl)ethyl]sulfinyl}phenyl)-1-benzofuran-2-sulfonamide]	83	5.52
Nc1nnc(CSc2ccc(Cl)cc2NS(=O)(=O)c2cc3ccccc3o2)[nH]1 [N-(2-{[(5-amino-4H-1,2,4-triazol-3-yl)methyl]thio}-5-chlorophenyl)-1-benzofuran-2-sulfonamide]	103	7.49
Nc1cccc(CS(=O)(=O)c2ccc(Cl)cc2NS(=O)(=O)c2ccc(Cl)cc2F)c1 [N-{2-[(3-aminobenzyl)sulfonyl]-5-chlorophenyl}-4-chloro-2-fluorobenzenesulfonamide]	96	6.61
CSc1ccc(Cl)cc1NS(=O)(=O)c1ccc(C)o1 [N-[5-chloro-2-(methylthio)phenyl]-5-methylfuran-2-sulfonamide]	77	7.15
CN(C)C(=O)CCCS(=O)(=O)c1ccc(Cl)cc1NS(=O)(=O)c1cc2ccccc2o1 [4-({2-[(1-benzofuran-2-ylsulfonyl)amino]-4-chlorophenyl}sulfonyl)-N,N-dimethylbutanamide]	98	6.00
Nc1cccc(CSc2ccc(Cl)cc2NS(=O)(=O)c2ccccc2)c1 [N-{2-[(3-aminobenzyl)thio]-5-chlorophenyl}benzenesulfonamide]	40	5.51
Nc1cccc(C[S+]([O-])c2ccc(Cl)cc2NS(=O)(=O)c2ccc(Cl)cc2F)c1 (stereo not drawn) [N-{2-[(3-aminobenzyl)sulfinyl]-5-chlorophenyl}-4-chloro-2-fluorobenzenesulfonamide]	95	6.95
